# According to ChEMBL document CHEMBL1201862, “PubChem BioAssay data set” (2004):
# The source made the active and inactive calls.
# Key:
# [1] = target: T1, Polyadenylate-binding protein 1 (Homo sapiens, UniProt P11940); test: MLLE binding blockers, Cy5 peptide tracer – biochemical, fluorescence polarization, Cy5-PAM2 peptide, secondary, miRNA deadenylation inhibitor project, dose response (AID 602260); assay type: functional; conditions: read-out: IC50_Mean
# [2] = target: T1, Polyadenylate-binding protein 1; test: MLLE domain peptide-binding blockers, IC50 – biochemical, fluorescence polarization, FITC-PAM2 peptide, dose response (AID 602259); assay type: functional; conditions: read-out: IC50_Mean
# cells = assay type: functional
# [3] = target: T2, Short transient receptor potential channel 4 (Mus musculus, UniProt Q9QUQ5); test: block of DAMGO-driven TRPC4 calcium entry – cell-based, HEK293 TRPC4/mu-opioid, Fluo-4 calcium, dose response (AID 434942); assay type: functional;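 also: potency of inhibitors blocking the TRPC4 calcium response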
# T2 sequence (Q9QUQ5 whole entry): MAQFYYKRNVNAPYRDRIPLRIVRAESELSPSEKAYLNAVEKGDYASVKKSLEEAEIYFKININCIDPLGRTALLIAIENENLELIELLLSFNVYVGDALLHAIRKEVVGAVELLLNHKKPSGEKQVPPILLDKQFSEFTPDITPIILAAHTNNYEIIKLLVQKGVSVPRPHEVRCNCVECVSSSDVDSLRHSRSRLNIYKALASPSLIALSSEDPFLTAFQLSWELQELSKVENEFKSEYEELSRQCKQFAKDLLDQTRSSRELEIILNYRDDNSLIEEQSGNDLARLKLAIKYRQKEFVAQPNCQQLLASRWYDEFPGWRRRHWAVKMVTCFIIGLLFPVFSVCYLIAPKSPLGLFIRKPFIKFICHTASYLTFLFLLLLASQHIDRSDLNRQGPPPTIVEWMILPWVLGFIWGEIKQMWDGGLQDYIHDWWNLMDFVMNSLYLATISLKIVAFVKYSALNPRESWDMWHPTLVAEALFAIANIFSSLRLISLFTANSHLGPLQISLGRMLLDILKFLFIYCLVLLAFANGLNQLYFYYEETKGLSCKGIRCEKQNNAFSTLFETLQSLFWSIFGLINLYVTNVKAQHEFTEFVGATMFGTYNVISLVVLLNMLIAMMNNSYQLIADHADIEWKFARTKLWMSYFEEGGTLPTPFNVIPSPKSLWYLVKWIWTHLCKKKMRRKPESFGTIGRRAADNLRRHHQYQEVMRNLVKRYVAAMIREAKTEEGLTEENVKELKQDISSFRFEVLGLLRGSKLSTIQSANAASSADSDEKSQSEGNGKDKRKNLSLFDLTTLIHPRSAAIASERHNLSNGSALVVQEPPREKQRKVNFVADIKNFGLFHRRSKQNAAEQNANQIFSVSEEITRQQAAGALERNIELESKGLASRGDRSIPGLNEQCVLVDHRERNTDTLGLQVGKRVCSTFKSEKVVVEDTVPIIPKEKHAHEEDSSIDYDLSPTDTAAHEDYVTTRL
# [4] = target: T3, Ubiquitin-conjugating enzyme E2 N (Homo sapiens, UniProt P61088); assay type: functional;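 also: Dose-response confirmation in a TR-FRET assay detecting UBC13-driven polyubiquitin chain formation, inhibition measured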
# T3 sequence (P61088 whole entry): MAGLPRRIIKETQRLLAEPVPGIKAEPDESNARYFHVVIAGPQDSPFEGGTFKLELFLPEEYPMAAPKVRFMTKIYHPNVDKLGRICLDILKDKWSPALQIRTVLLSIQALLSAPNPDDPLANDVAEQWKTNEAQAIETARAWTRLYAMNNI
# [5] = NIH-3T3 fibroblast cytotoxicity, dose response, cytotoxicity control, cell-based, fluorescence, Alamar Blue, secondary assay (AID 2327); assay type: functional;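 also: NIH-3T3 mouse fibroblasts cultured with fluconazole at 8 µg/mL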
# [6] = fluconazole-exposed Candida albicans growth modulators – fluorescence, retest, confirmation (AID 2467); assay type: functional, cell-based
# [7] = system: Streptococcus sp. 'group A'; test: Streptococcus pyogenes SK(-)GAS viability under kanamycin – luminescence, BacTiterGlo, confirmation, counter-screen for streptokinase expression inhibitor project, dose response (AID 1900); assay type: functional, organism-based
# Streptokinase A = target: T4, Streptokinase A (Streptococcus pyogenes serotype M1, UniProt P10520); test: viability-normalized secreted streptokinase activity reduction – plasminogen activation absorbance, OD405, dose response (AID 1914); assay type: functional, Streptococcus pyogenes M1 GAS;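 also: secreted streptokinase activity via plasminogen activation per viability signal from cell pellet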
# T4 sequence (P10520 whole entry): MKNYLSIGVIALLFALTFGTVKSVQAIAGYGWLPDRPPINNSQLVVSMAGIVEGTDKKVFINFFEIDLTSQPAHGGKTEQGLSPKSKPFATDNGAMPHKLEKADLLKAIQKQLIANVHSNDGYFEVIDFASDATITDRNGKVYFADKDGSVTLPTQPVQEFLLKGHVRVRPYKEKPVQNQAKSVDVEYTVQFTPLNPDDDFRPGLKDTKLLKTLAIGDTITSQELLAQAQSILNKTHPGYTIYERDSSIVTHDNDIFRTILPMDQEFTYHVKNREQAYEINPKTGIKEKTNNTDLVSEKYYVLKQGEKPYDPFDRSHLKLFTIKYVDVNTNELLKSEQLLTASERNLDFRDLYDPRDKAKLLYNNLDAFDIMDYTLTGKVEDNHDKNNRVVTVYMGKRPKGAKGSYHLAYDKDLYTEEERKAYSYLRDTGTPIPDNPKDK
# Streptococcus = test: GAS UMAA2166 growth inhibition – luminescence, BacTiterGlo, counter-screen for streptokinase expression inhibitor project, dose response (AID 1915); assay type: functional, organism-based;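 also: potency for reduction of bacterial viability or growth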
# [8] = non-specific 3'UTR reporter inhibition in Clone20-Shn3RL – cell-based, Renilla luciferase, cherry-picked, counter-screen for Shn3 inhibitor project, dose response (AID 624133); assay type: functional
# Nonstructural protein 1 = Nonstructural protein 1 (Influenza A virus, UniProt Q194T2); assay type: functional, Influenza A virus (A/California/07/2009(H1N1))
# [9] = reduction of Shn3 3'UTR-driven luciferase in osteoblasts – cell-based, Clone20 osteoblasts, firefly luciferase, cherry-picked, dose response (AID 624132); assay type: functional;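 also: firefly luciferase luminescence from reporter carrying the Shn3 3'UTR in osteoblasts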
# [10] = loss of viability in HepG2 cells – cell-based, CellTiter-Glo, cherry-picked, cytotoxicity control for Shn3 inhibitor project, dose response (AID 624134); assay type: functional
# [11] = Luminescence Cell-Based Dose Retest to Confirm Inhibitors of Cancer Stem Cells. [Related pubchem assays (depositor defined):AID2717, AID2721]; assay type: functional; conditions: Homo sapiens
# [12] = target: T5, Rac GTPase-activating protein 1 (Homo sapiens, UniProt Q9H0H5); test: blockers of MgcRacGAP-driven Rac1 GTP hydrolysis – biochemical, ADP Hunter fluorescence, primary and confirmatory, confirmation (AID 624330); assay type: functional
# T5 sequence (Q9H0H5 whole entry): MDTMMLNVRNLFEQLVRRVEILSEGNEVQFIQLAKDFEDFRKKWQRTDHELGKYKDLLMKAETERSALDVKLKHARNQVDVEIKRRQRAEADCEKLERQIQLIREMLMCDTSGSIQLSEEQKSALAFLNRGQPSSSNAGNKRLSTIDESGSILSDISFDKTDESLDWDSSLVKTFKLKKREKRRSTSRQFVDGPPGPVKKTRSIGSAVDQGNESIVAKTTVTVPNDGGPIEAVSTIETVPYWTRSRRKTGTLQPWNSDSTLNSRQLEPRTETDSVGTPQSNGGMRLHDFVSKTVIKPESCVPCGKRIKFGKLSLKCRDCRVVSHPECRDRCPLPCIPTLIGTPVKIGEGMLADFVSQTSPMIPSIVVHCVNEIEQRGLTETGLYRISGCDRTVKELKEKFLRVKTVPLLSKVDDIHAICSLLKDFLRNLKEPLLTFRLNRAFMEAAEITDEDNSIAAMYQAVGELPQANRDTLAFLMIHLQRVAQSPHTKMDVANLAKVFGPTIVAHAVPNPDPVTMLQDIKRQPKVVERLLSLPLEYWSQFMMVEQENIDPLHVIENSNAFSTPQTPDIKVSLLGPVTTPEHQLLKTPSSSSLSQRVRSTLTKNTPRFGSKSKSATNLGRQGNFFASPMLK
# [13] = Trypanosoma cruzi growth suppression in host cells – NIH3T3 host cells, beta-gal luminescence, confirmation (AID 2044); assay type: functional, cell-based;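 also: intracellular parasites grown in NIH/3T3 mouse fibroblasts as host cells; luminescent beta-galactosidase reporter signal from transgenic T. cruzi replicating inside host cells; inhibitors lower the luminescence signal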
# [14] = NIH3T3 cell viability loss – ATP luminescence, mouse fibroblasts, counter-screen, dose response (AID 2010); assay type: functional, cell-based;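 also: cells exposed to compound for about 90 hours before reading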
# [15] = P. falciparum Dd2 growth inhibitors, dose response, SYBR Green, cherry-picked samples (AID 1159567); assay type: functional, cell-based
# T1 sequence (P11940 whole entry, the tested form may be a part): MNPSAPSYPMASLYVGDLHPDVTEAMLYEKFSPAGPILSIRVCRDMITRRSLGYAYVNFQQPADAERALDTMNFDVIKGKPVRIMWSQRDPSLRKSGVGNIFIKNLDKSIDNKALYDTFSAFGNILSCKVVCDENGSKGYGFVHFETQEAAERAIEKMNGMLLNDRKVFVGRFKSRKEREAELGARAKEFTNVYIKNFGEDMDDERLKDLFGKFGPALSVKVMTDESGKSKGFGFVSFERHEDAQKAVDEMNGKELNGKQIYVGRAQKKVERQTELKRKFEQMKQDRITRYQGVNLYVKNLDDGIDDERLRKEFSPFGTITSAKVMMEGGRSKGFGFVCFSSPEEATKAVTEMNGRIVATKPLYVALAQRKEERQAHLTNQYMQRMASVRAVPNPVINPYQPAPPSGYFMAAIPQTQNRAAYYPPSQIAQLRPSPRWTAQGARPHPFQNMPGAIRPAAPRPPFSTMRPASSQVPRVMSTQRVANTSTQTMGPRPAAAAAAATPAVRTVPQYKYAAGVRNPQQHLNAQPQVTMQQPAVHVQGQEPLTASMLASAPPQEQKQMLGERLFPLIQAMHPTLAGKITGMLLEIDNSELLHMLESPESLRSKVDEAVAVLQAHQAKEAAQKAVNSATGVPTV
# Chain of Nonstructural protein 1 (Q194T2 whole entry): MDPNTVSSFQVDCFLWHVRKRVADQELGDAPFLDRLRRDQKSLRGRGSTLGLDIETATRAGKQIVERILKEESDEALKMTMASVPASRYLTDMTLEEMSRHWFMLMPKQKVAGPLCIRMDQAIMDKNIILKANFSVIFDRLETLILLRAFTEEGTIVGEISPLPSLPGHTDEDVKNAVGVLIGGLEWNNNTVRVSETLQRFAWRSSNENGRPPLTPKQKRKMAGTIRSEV
compound,measurement,setting,value
Cn1nnc(NC(=S)NC(=O)c2cccc3c(Br)cccc23)n1,IC50,[1],> 66 µM (inactive)
same,IC50,[2],> 66 µM (inactive)
O=c1c(=Nc2ccccc2O)c(=O)c2ccccc12,IC50,cells,3.81 µM (active)
CCC(SCC(=O)OC)C(=O)Nc1nnc(C(C)C)s1 (stereo not given),IC50,[1],> 66 µM (inactive)
same,IC50,[2],> 66 µM (inactive)
CCOC(=O)C1CCN(C(=O)COC(=O)CSc2ccc([N+](=O)[O-])cc2)CC1,IC50,[1],> 66 µM (inactive)
same,IC50,[2],> 66 µM (inactive)
CCOc1ccc(NC(=S)NC(=O)c2c(Cl)c(C)nn2C)c([N+](=O)[O-])c1,IC50,[1],> 66 µM (inactive)
same,IC50,[2],> 66 µM (inactive)
CCOc1ccc(CN2CCN(C(=O)c3ccccc3)CC2)cc1,EC50,[3],6.68 µM (active)
O=C(CCc1ccccc1)NNC(=O)c1ccccn1,IC50,[4],> 20 µM (inactive)
CC1CN(C(S)=Nc2cccc([N+](=O)[O-])c2)CC(C)O1 (stereo not given),EC50,[5],> 160 µM (inactive)
same,EC50,[6],> 38 µM (not active)
O=C(CCS(=O)(=O)c1ccccc1)Nc1nc2cc3c(cc2s1)OCCO3,EC50,[5],> 160 µM (inactive)
same,EC50,[7],79.6 µM (active)
same,EC50,Streptokinase A,> 150 µM (not active)
same,EC50,[6],1.75 µM (active)
same,EC50,Streptococcus,> 150 µM (not active)
CC(C)(C)N(Cc1ccccc1)C(=O)COC(=O)CCc1c[nH]c2ccccc12,AC50,[8],25.9 µM (active)
Oc1cc(-c2ccncc2)cc2cccnc12,IC50,Nonstructural protein 1,11.9 µM (active)
same,AC50,[9],5.4 µM (active)
same,AC50,[10],10.9 µM (active)
same,AC50,[8],3.51 µM (active)
COc1cc2ccccc2cc1C(=O)NC(=S)Nc1cccc(C(=O)O)c1,IC50,[1],> 66 µM (inactive)
same,IC50,[2],> 66 µM (inactive)
Nc1c(C(=O)Nc2ccccc2)c2nc3ccccc3nc2n1CCCN1CCOCC1,AC50,[11],5.96 µM (active)
same,IC50,[4],> 20 µM (inactive)
Cc1cccc(N(Cc2ccccc2)C(=O)CSC(C)C(=O)Nc2cc(C)on2)c1 (stereo not given),EC50,[3],2.11 µM (active)
O=C(NCCCN1CCOCC1)c1ccc(NC(=O)C2COc3ccccc3O2)cc1 (stereo not given),EC50,[3],15 µM (active)
CC1=C(C(N)=O)C(c2ccc(C)o2)C(C(N)=O)=C(C)N1,EC50,[5],> 160 µM (inactive)
same,EC50,[6],> 38 µM (not active)
CC(C)n1c(NCc2c[nH]c3ccccc23)nc2ccccc21,EC50,[3],1.68 µM (active)
COCCN=C(S)N(CCO)Cc1cc2cc3c(cc2nc1O)OCCO3,IC50,[1],> 66 µM (inactive)
same,IC50,[2],> 66 µM (inactive)
COc1ccc(NC(=O)CNC(=O)c2nn(-c3ccc(OC)cc3OC)c(=O)c3ccccc23)c(OC)c1,EC50,[5],132 µM (active)
same,EC50,[6],1.55 µM (active)
OC(COc1ccccc1)CN1C2=NCCCN2c2ccccc21 (stereo not given),EC50,[3],13.3 µM (active)
Cc1cccc(C(=O)Nc2nnc(-c3cccnc3)o2)c1,IC50,cells,9.52 µM (active)
O=C(Cc1ccc(F)cc1)N1CCN=C1SCc1ccc([N+](=O)[O-])cc1,IC50,[1],> 66 µM (inactive)
same,IC50,[2],> 66 µM (inactive)
Cc1ccc2cc(CN(CCN3CCOCC3)C(=O)NCc3ccccc3)c(O)nc2c1C,EC50,[3],4.22 µM (active)
O=C(COC(=O)c1ccccc1Cl)NCCC1=CCCCC1,IC50,cells,29.9 µM (active)
CCn1c(NC(=O)c2cccs2)nc2ccccc21,EC50,[5],48.8 µM (active)
same,EC50,[6],1.43 µM (active)
CCC(=O)NC(=S)NNC(=O)c1ccc([N+](=O)[O-])cc1,IC50,[4],> 20 µM (inactive)
O=C(NC(=S)N1CCCC1)c1ccccc1F,IC50,[1],> 66 µM (inactive)
same,IC50,[2],> 66 µM (inactive)
CC(C)C1=Nc2cccc3cccc(c23)N1,EC50,[3],2.37 µM (active)
same,IC50,[12],26.3 µM (active)
COc1ccc(Cl)cc1/C=N/NC(=O)c1c(-c2ccccc2)noc1C,IC50,[4],> 20 µM (inactive)
N#C/C(=N\Nc1ccc(S(=O)(=O)N2CCCCCC2)cc1)C(N)=S,EC50,[7],22.7 µM (active)
same,EC50,Streptokinase A,> 150 µM (not active)
same,EC50,Streptococcus,> 150 µM (not active)
same,IC50,[1],> 66 µM (inactive)
same,IC50,[2],> 66 µM (inactive)
Cc1cc(/C=N/NC(N)=S)c(C)n1-c1cccc(Cl)c1,EC50,[5],> 150 µM (inconclusive)
same,EC50,[6],3.69 µM (active)
same,EC50,[13],0.984 µM (active)
same,EC50,[14],> 60 µM (not active)
CC(C)(C)[S@@+]([O-])N1Cc2cc(C(=O)NC3CCC3)nc(-c3cccc(Br)c3)c2[C@H]1CCO,AC50,[15],5.58 µM (active)
CO[C@@H]1CN(C)C(=O)c2cc(NC(=O)C3CC3)ccc2OC[C@H](C)N(CC2CCCC2)C[C@H]1C,AC50,[15],4.45 µM (active)
CCC(=O)N1CC2(CCN(Cc3ccc(Cl)cc3)CC2)c2c(n(C)c3cc(OC)ccc23)[C@@H]1CO,AC50,[15],7.31 µM (active)
CN(C)C(=O)c1cccc(-c2ccc3c(c2)[C@H]2[C@H](CCN2C(=O)C2CC2)[C@@H](CO)N3)c1,AC50,[15],17.5 µM (active)
CCC(=O)N1CC2(C1)CN(Cc1cc(F)ccc1F)[C@H](CO)c1[nH]c3cc(OC)ccc3c12,AC50,[15],5.73 µM (active)
O=C(C1CCC1)N1CC(=O)N2[C@H](CO)[C@@H](c3ccc(C#CCc4ccccc4)cc3)[C@@H]2C1,AC50,[15],4.27 µM (active)
